What was measured:
[1] = test system: smoke-induced elastic fiber injury; test: Mouse model of smoke-induced pulmonary emphysema: DID in BALF and whole lungs; type: in vivo, DBA/2J mice
Protocol: (§1) Eight-week-old female DBA/2J mice (The Jackson Laboratory, Bar Harbor, Me.) were divided into two treatment groups as follows: Group 1 was treated with aerosolized HA, beginning 1 month following initiation of smoke exposure; Group 2 was treated with aerosolized water, beginning 1 month following initiation of smoke exposure. Groups 1 and 2 were exposed to smoke for 3 h per day, 5 days/week, for a period of 10 months. Group 1 was treated with a 0.1% solution of HA in water for 1 h prior to each smoking session. Group 2 received aerosolized water for a similar interval. At various intervals following initial smoke exposure, animals were euthanized to determine (1) DID content in bronchoalveolar lavage fluid (BALF) and whole lungs at 2, 4, 6, 8, and 10 months; (2) lung histopathology at 3, 6, and 10 months; and (3) airspace enlargement as measured by the mean linear intercept (MLI) at 3 months.
Following administration of either aerosolized HA or water, the nebulizer was disconnected and the smoking machine (Model TE-10, Teague Enterprises, Davis, Calif.) was attached to the exposure chamber. Both treatment groups were exposed to cigarette smoke for a period of 3 h/day, 5 days/week. The smoking machine simultaneously burned two filtered research-grade cigarettes (type 2R4F, University of Kentucky). Each cigarette was puffed once per minute for 2 s at a flow rate of 1.05 LPM, yielding 35 cc of smoke. This cycle was repeated nine times before ejecting the cigarette and loading a new one. Proper flow rate was maintained by a vacuum pump that established negative pressure at the exhaust port.
Beginning 1 month following initial smoke exposure, Group 1 was administered a 0.1% solution of low-molecular-weight (150 kDa) streptococcal HA in water (Bayer, Shawnee, Kans.), using a Misty-Ox nebulizer (Vital Signs, Totowa, N.J.). Group 2 received aerosolized water alone. The nebulizer was connected to a heavy-duty air compressor that delivered a constant pressure of 30 psi. The aerosol entered the exposure chamber through an inflow port attached to the roof and was drawn through the chamber by negative pressure created by a vacuum pump connected to an exhaust port on the side wall. The chamber was large enough (28×19×15 in.) to permit the mice to remain in their cages while inhaling the aerosol, thereby minimizing direct handling of the animals.
The levels of the elastin-specific crosslinking amino acids, DID, were measured in both BALF and whole-lung tissues. Animals were asphyxiated with CO2 and their lungs were lavaged three times with 1-ml aliquots of Hanks' solution. Both cell-free lavage fluids and homogenized lung tissues were then hydrolyzed in 6 N HCl at 110° C. for 24 h, and the hydrolysates were filtered and evaporated to remove acid. DID were quantified by high-performance liquid chromatography and electrospray ionization mass spectrometry according to previously published procedures^11.

[2] = test system: smoke-induced airspace enlargement; type: in vivo, DBA/2J mice
Protocol: as §1, with “3 months. […]” for “3 months.”
At 3, 6, and 10 months following initiation of smoke exposure, mice were asphyxiated with CO2 and their lungs were inflated in situ with 10% neutral-buffered formalin at a constant pressure of 20 cm H2O. […] Slide sections stained with hematoxylin and eosin were examined with the light microscope to determine histological changes and to quantify airspace diameter by the mean linear intercept method^16. […]

[3] = test system: elastase-induced airspace enlargement; details: aerosol of 0.1% HA in water for 50 min prior to elastase; cited from earlier work
[4] = test system: elastases, including human metalloproteinase 12; details: cited from earlier work
[5] = test system: smoke-induced elastic fiber injury; details: concurrent administration, within 3 months of smoke exposure; cited from earlier work
[6] = Stability of DES and IDS on acid hydrolysis (6N HCl, 110° C., 24 hrs), LC/MSMS; details: for Recovered, mean: 6N HCl at 110° C. for 24 hour; for stability through acid hydrolysis: 10, 5 and 1 ng/ml, HCl hydrolysis at 110° C. for 24 hrs
Protocol: The assay of total DES and IDS in biological fluids requires HCl hydrolysis at 110° C. to release DES and IDS from their crosslinked or peptide conjugates. We examined the stability of DES and IDS in three different concentrations (10, 5, and 1 ng/ml) during HCl hydrolysis at 110° C. for 24 hrs. The DES/IDS solutions resulting from the HCl treatment were subjected to LC/MSMS measurements of DES and IDS, which were compared with the measurements of the same concentrations of untreated DES and IDS to calculate the recovery by the acid treatment.

[7] = test system: COPD patients; test: Tiotropium treatment of COPD patients: D/I in plasma, urine and sputum by LC/MS; type: in vivo, human
Protocol: COPD patients have elevated levels of D/I in plasma, urine and sputum, which might respond to prolonged bronchodilation. To determine if clinical effects of Tiotropium (TIO) affect tissue degradation of the lung in COPD, clinically stable patients with COPD (n=9) not on TIO prior to the study and at one month and a second month after initiating therapy were tested. Other anticholinergic bronchodilators were stopped prior to TIO, and other therapies/disease treatments were unchanged for the two months of study. To these patients, 18 mcg TIO was administered each 24 hours. D/I in plasma, urine and sputum were measured by liquid chromatography and mass spectrometry (LC/MS) prior to the study and at one month and two months after the study.

[8] = test system: COPD patients; test: Spirometry in post-TIO therapy patients; type: in vivo, human; details: most post-TIO therapy patients
Source text: The improvement in spirometric indices were usually concordant with levels of D/I in patients.

[9] = test system: neutrophils and macrophages; details: cited from earlier work
[10] = test system: pro-MMP1 and pro-MMP3; details: cited from earlier work
[11] = COPD patients, 18 mcg TIO each 24 hours, up to two months

With hyaluronan [HA] the “difference in BALF DID, HA/Smoke vs Smoke-Only” value ([1]; 2 and 4 months of smoke exposure) was “not statistically significant”, the “BALF DID, level before the drop” value ([1]; HA/Smoke group, 0.1% aerosolized HA begun 1 month after start of smoke) was 0.8 ng/mL and the “BALF DID, level after the drop” value ([1]; HA/Smoke group, after 4 months of smoke exposure) was “less than 1 pg/ml”. The “BALF DID, HA-treated vs Smoke-Only” value ([1]; subsequent measurements (after 4 months)) was “significantly lower levels”, the “difference in lung DID, HA/Smoke vs Smoke-Only” value ([1]; whole lungs, 10-month period) was “not statistically significant” and the “mean linear intercept (MLI)” value ([2]; 3 months of smoke, HA treated for 2 months, smoke alone 58.4 μm, p<0.01) was 42.6 μm. The “inflammatory response beyond that induced by smoke exposure” value ([2]; mouse, in vivo) was “no evidence of an inflammatory response”, the “airspace enlargement vs aerosolized water and elastase” value [3] was “significantly less airspace enlargement” and the “direct inhibition of elastases” value [4] was “does not directly inhibit elastases”. For the same molecule, the “elastolysis of elastic fibers with bound HA” value ([4]; in vitro, several types of elastase including human metalloproteinase 12) was “prevented elastolysis” and the “BALF DID levels” value [5] was “significantly reduced”.

For `NC(CCCC[n+]1cc(CCC(N)C(=O)O)cc(CCC(N)C(=O)O)c1CCCC(N)C(=O)O)C(=O)O` (stereo not drawn) [IDS, Isodesmosine], the “Recovered, mean” value ([6]; 1 ng/ml DES/IDS) was 0.48 ng/mL, the “Recovered, mean” value ([6]; 5 ng/ml DES/IDS) was 2.55 ng/mL and the “Recovered, mean” value ([6]; 10 ng/ml DES/IDS) was 5.37 ng/mL. For the same molecule, the “stability through acid hydrolysis” value [6] was “stable through acid hydrolysis”.

In the case of `C[N+]1(C)[C@@H]2C[C@@H](OC(=O)C(O)(c3cccs3)c3cccs3)C[C@H]1[C@@H]1O[C@@H]12` [TIO, Tiotropium], the “patients with significant decrease in D/I levels in plasma” value [7, 11] is reported as 10 out of 12, the “patients with significant decrease in D/I levels in sputum” value [7, 11] is reported as “all 12 patients” and the “patients with significant decrease in D/I levels in urine” value [7, 11] is reported as 10 out of 12. The “D/I levels in plasma, urine and sputum” value ([7]; two months of treatment with TIO) was “significant reductions”, the “FVC, FEV1 and ratio of FEV1/FVC” value [8] was “significant increase” and the “Residual Volume (RV)” value [8] was “decreases”.

For `NC(CCCC[n+]1cc(CCC(N)C(=O)O)c(CCCC(N)C(=O)O)c(CCC(N)C(=O)O)c1)C(=O)O` (stereo not drawn) [DES, Desmosine], the “Recovered, mean” value ([6]; 1 ng/ml DES/IDS) was 0.50 ng/mL, the “Recovered, mean” value ([6]; 5 ng/ml DES/IDS) was 2.42 ng/mL and the “Recovered, mean” value ([6]; 10 ng/ml DES/IDS) was 5.04 ng/mL. The “stability through acid hydrolysis” value [6] was “stable through acid hydrolysis”.

For “VGVAPG (Human) [elastin-derived hexapeptide isolated from ligamentum nuchae or aorta by porcine pancreatic elastase]”, the chemoattractant activity [9] is given as “chemoattractants for neutrophils and macrophages” and the “pro-MMP1 and pro-MMP3 upregulation” value [10] is given as “induce pro-MMP1 and pro-MMP3 upregulation”.

Source: patent US9885727B2, “Cell culture models for validating candidate compounds for use in treating COPD and other diseases” (THE TRUSTEES OF COLUMBIA UNIVERSITY IN THE CITY OF NEW YORK, priority 2010, dated 2018)
